Earlier results as cited in patent US20160338997A1, “KELOID REDUCTION USING TOPICAL ALLANTOIN” (Scioderm, Inc., priority 2013, published 2016).

Settings: emulsion pH 6.8 to 7.5; with time and in accelerated stability tests at 40° C

degradation of allantoin: degrades significantly
SMILES: NC(=O)NC1NC(=O)NC1=O (stereo not shown) [allantoin]
